Measured values taken from paper PMC7591920, “A protein tertiary structure mimetic modulator of the Hippo signalling pathway” (Nature Communications, 2020).
Bridge positions count the residues as written; N and C are the ends. Square brackets hold non-standard residues; d marks the D form. Peptide text beside a SMILES is read from it. Orn = NCCC[C@H](N)C(=O)O; Dab = NCC[C@H](N)C(=O)O

Target: T1, mTEAD4 (Mus musculus, UniProt Q62296)
T1 construct: Mouse TEAD4(210–427) cDNA fused with a 6x His-tag and a 3C protease cleavage site; 6x His-tag; 3C protease cleavage site; made in house; host or cells: E. coli BL21 DE3 RIL(K+)
Assay: SPR binding to immobilised mTEAD4
Conditions: mTEAD4 amine-coupled on CM5, multi-cycle, steady-state fit 1:1 model, 10 mM HEPES 150 mM NaCl 0.05% Tween-20 pH 7.4, 0.3% DMSO, 20 °C, Fig. 1 values n = 1 replicate
Protocol: Sensor chips Series S CM5 (Research grade) were obtained from GE Healthcare. Prior to use, the sensor chips were equilibrated at room temperature for 15 min to prevent water condensation on the detector side of the sensor chip surface. A running buffer was prepared composed of 10 mM HEPES, 150 mM NaCl, and 0.05% (w/v) Tween-20, pH 7.4, and the system was equilibrated at 20 °C using a flow rate of 30 µL min^−1 after docking of the sensor chip. Ligand binding experiments have been performed applying the concept of multi-cycle kinetics. A contact time of 45 s was selected, followed by a 6-min dissociation phase to allow for complete dissociation of the analyte prior to the next cycle. […] Typically, seven concentrations of the analytes have been examined applying a threefold dilution pattern with 30 µM as top concentration. For the analysis, five running buffer blanks were injected to equilibrate the instrument. […] The carboxyl-dextran surface was activated for 7 min with 0.05 M NHS and 0.2 M EDC, followed by an injection of the proteins in 10 mM MES pH 6.4 at a concentration of 30–50 µg mL^−1. […] This was followed by a deactivation of the residual esters by injecting a solution of 0.5 M ethanolamine pH 8.0 for 7 min before engaging in ligand binding experiments. Reference surfaces were prepared accordingly, omitting the injection of protein over the activated reference surface.

T1 sequence (Q62296 210-427): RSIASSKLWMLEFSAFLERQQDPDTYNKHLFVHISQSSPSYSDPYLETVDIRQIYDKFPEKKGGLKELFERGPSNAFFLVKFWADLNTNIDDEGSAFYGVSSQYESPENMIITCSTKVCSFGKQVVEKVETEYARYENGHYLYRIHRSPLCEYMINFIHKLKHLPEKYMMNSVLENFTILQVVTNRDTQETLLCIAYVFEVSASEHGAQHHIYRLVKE

| Kd [µM] | Compound |
| --- | --- |
| 11 | CC[C@H](C)[C@@H]1NC(=O)[C@H](CCC(N)=O)NC(=O)[C@H](CC(C)C)NC(=O)[C@H](Cc2c[nH]c3ccccc23)NC(=O)[C@H]([C@@H](C)O)NC(=O)[C@H](CC(=O)O)NC(=O)CNC(=O)[C@H](CC(C)C)NC(=O)[C@H](C)NC(=O)[C@H](CCCCN)NC(=O)[C@H](C)NC(=O)[C@H](Cc2ccccc2)NC(=O)[C@H](Cc2c[nH]cn2)NC(=O)[C@H](CC(=O)O)NC(=O)[C@@H](NC(=O)[C@@H](NC(=O)[C@H](CO)NC(C)=O)C(C)C)CC(=O)NCC[C@@H](C(=O)N[C@@H](C)C(=O)N[C@@H](C)C(N)=O)NC1=O [4A] (Ac-SVDDHFAKALGDTWLQI[Dab]AA-NH2; lactam 3-18) |
| 11 | CC[C@H](C)[C@@H]1NC(=O)[C@H](CCC(N)=O)NC(=O)[C@H](CC(C)C)NC(=O)[C@H](Cc2c[nH]c3ccccc23)NC(=O)[C@H]([C@@H](C)O)NC(=O)[C@H](CC(=O)O)NC(=O)CNC(=O)[C@H](CC(C)C)NC(=O)[C@H](C)NC(=O)[C@H](CCCCN)NC(=O)[C@H](C)NC(=O)[C@H](Cc2ccccc2)NC(=O)[C@H](Cc2c[nH]cn2)NC(=O)[C@H](CC(=O)O)NC(=O)[C@@H](NC(=O)[C@@H](NC(=O)[C@H](CO)NC(C)=O)C(C)C)CC(=O)NCCC[C@@H](C(=O)N[C@@H](C)C(=O)N[C@@H](C)C(N)=O)NC1=O [4B] (Ac-SVDDHFAKALGDTWLQI[Orn]AA-NH2; lactam 3-18) |
| 3.2 | CC[C@H](C)[C@@H]1NC(=O)[C@H](CCC(N)=O)NC(=O)[C@H](CC(C)C)NC(=O)[C@H](Cc2c[nH]c3ccccc23)NC(=O)[C@H]([C@@H](C)O)NC(=O)[C@H](CC(=O)O)NC(=O)CNC(=O)[C@H](CC(C)C)NC(=O)[C@H](C)NC(=O)[C@H](CCCCN)NC(=O)[C@H](C)NC(=O)[C@H](Cc2ccccc2)NC(=O)[C@H](Cc2c[nH]cn2)NC(=O)[C@H](CC(=O)O)NC(=O)[C@@H](NC(=O)[C@@H](NC(=O)[C@H](CO)NC(C)=O)C(C)C)CC(=O)NCCCC[C@@H](C(=O)N[C@@H](C)C(=O)N[C@@H](C)C(N)=O)NC1=O [4C] (Ac-SVDDHFAKALGDTWLQIKAA-NH2; lactam 3-18) |
